Test results published in ChEMBL document CHEMBL3259750, “The antibacterial properties of sulfur containing flavonoids” (2014).
Calls of active or inactive are those of the source. The rule behind the calls is not given here.

Legend:
[1] = system: Staphylococcus aureus; assay: Antibacterial activity against Staphylococcus aureus ATCC 25923 assessed as diameter of growth inhibition zone at 1 mg/ml after 24 hrs by disk diffusion assay; assay type: functional; settings: for zone of inhibition at 1000 µg/mL: ATCC 25923, 24 h, read-out: DIZ
[2] = system: Escherichia coli; assay: Antibacterial activity against Escherichia coli ATCC 25922 assessed as diameter of growth inhibition zone at 0.5 mg/ml after 24 hrs by disk diffusion assay; assay type: functional; settings: for zone of inhibition at 500 µg/mL: ATCC 25922, 24 h, read-out: DIZ
[3] = system: Staphylococcus aureus; assay: Antibacterial activity against Staphylococcus aureus ATCC 25923 assessed as diameter of growth inhibition zone at 0.5 mg/ml after 24 hrs by disk diffusion assay; assay type: functional; settings: for zone of inhibition at 500 µg/mL: ATCC 25923, 24 h, read-out: DIZ
[4] = system: Escherichia coli; assay: Antibacterial activity against Escherichia coli ATCC 25922 assessed as diameter of growth inhibition zone at 0.25 mg/ml after 24 hrs by disk diffusion assay; assay type: functional; settings: for zone of inhibition at 250 µg/mL: ATCC 25922, 24 h, read-out: DIZ
[5] = system: Staphylococcus aureus; assay: Antibacterial activity against Staphylococcus aureus ATCC 25923 assessed as diameter of growth inhibition zone at 0.25 mg/ml after 24 hrs by disk diffusion assay; assay type: functional; settings: for zone of inhibition at 250 µg/mL: ATCC 25923, 24 h, read-out: DIZ
[6] = system: Escherichia coli; assay: Antibacterial activity against Escherichia coli ATCC 25922 assessed as diameter of growth inhibition zone at 1 mg/ml after 24 hrs by disk diffusion assay; assay type: functional; settings: for zone of inhibition at 1000 µg/mL: ATCC 25922, 24 h, read-out: DIZ
[7] = system: Escherichia coli; assay: Antibacterial activity against Escherichia coli ATCC 25922 assessed as growth inhibition after 18 hrs by colorimetric microdilution technique; assay type: functional; settings: ATCC 25922, 18 h
[8] = system: Staphylococcus aureus; assay: Antibacterial activity against Staphylococcus aureus ATCC 25923 assessed as growth inhibition after 18 hrs by colorimetric microdilution technique; assay type: functional; settings: ATCC 25923, 18 h
[9] = system: Candida albicans; assay: Antifungal activity against Candida albicans ATCC 90028; assay type: functional, organism-based
[10] = system: Staphylococcus aureus; assay: Antibacterial activity against Staphylococcus aureus ATCC 25923 assessed as diameter of growth inhibition zone at 10 ug/disk after 24 hrs by disk diffusion assay; assay type: functional, organism-based
[11] = system: Escherichia coli; assay: Antibacterial activity against Escherichia coli ATCC 25922 assessed as diameter of growth inhibition zone at 10 ug/disk after 24 hrs by disk diffusion assay; assay type: functional, organism-based

Compound | diameter of the inhibition zone (DIZ) [1] | diameter of the inhibition zone (DIZ) [2] | diameter of the inhibition zone (DIZ) [3] | diameter of the inhibition zone (DIZ) [4] | diameter of the inhibition zone (DIZ) [5] | diameter of the inhibition zone (DIZ) [6] | MIC [7] [µg/mL] | MIC [8] [µg/mL] | zone of inhibition at 1000 µg/mL [1] [mm] | zone of inhibition at 500 µg/mL [3] [mm] | zone of inhibition at 250 µg/mL [5] [mm] | further results
CCN(CC)C(=S)SC1C(=O)c2cc(Br)ccc2OC1c1ccc(OC)cc1 (mixture of isomers) | inactive | inactive | inactive | inactive | inactive | inactive |  |  |  |  |  | 
CCN(CC)[c+]1sc2c(s1)C(c1ccc(Cl)cc1)Oc1ccc(Br)cc1-2.F[B-](F)(F)F (stereo not given) |  |  |  |  |  |  | 3.9 | 0.48 |  |  |  | 
CCN(CC)[c+]1sc2c(s1)C(c1ccc(Cl)cc1)Oc1c(Br)cc(Br)cc1-2.F[B-](F)(F)F (stereo not given) |  | inactive |  | inactive |  |  | 7.81 | 1.95 | 21.3 | 18.7 | 17.7 | Activity [9]: Active; zone of inhibition at 1000 µg/mL [6]: 10.7 mm
CCN(CC)[c+]1sc2c(s1)C(c1ccc(Cl)cc1)Oc1ccccc1-2.F[B-](F)(F)F (stereo not given) |  | inactive |  | inactive |  | inactive | 62.5 | 1.95 | 16.3 | 14.3 | 7.33 | Activity [9]: Active
CCN(CC)[c+]1sc2c(s1)C(c1ccc(OC)cc1)Oc1ccc(Br)cc1-2.[O-][Cl+3]([O-])([O-])[O-] (stereo not given) |  |  |  |  |  |  | 125 | 3.9 | 13.7 | 9.66 | 7.66 | zone of inhibition at 500 µg/mL [2]: 7.33 mm; zone of inhibition at 250 µg/mL [4]: 6.66 mm; zone of inhibition at 1000 µg/mL [6]: 7.66 mm
CCN(CC)[c+]1sc2c(s1)C(c1ccc(OC)cc1)Oc1ccc(Br)cc1-2.F[B-](F)(F)F (stereo not given) |  |  |  |  |  |  | 125 | 1.95 |  |  |  | 
CCN(CC)[c+]1sc2c(s1)C(c1ccc(Cl)cc1)Oc1ccc(Br)cc1-2.[O-][Cl+3]([O-])([O-])[O-] (stereo not given) |  |  |  |  |  |  | 3.9 | 0.48 | 20.3 | 17.3 | 15 | zone of inhibition at 500 µg/mL [2]: 10.7 mm; zone of inhibition at 250 µg/mL [4]: 8.33 mm; zone of inhibition at 1000 µg/mL [6]: 11.7 mm
CCN(CC)C(=S)SC1C(=O)c2ccccc2OC1c1ccc(Cl)cc1 (mixture of isomers) | inactive | inactive | inactive | inactive | inactive | inactive |  |  |  |  |  | 
CCN(CC)C(=S)SC1C(=O)c2cc(I)cc(I)c2OC1c1ccc(Cl)cc1 (stereo not given) | inactive | inactive | inactive | inactive | inactive | inactive |  |  |  |  |  | 
GENTAMICIN |  |  |  |  |  |  |  |  |  |  |  | inhibition zone (IZ) [10]: 18.3 mm; inhibition zone (IZ) [11]: 15.8 mm
CCN(CC)[c+]1sc2c(s1)C(c1ccc(Cl)cc1)Oc1c(I)cc(I)cc1-2.[O-][Cl+3]([O-])([O-])[O-] (stereo not given) |  |  |  |  |  |  | 7.81 | 1.95 | 16.7 | 14 | 8.33 | zone of inhibition at 500 µg/mL [2]: 8.33 mm; zone of inhibition at 250 µg/mL [4]: 7.66 mm; zone of inhibition at 1000 µg/mL [6]: 9.33 mm
CCN(CC)[c+]1sc2c(s1)C(c1ccc(Cl)cc1)Oc1c(I)cc(I)cc1-2.F[B-](F)(F)F (stereo not given) |  |  |  |  |  |  | 15.6 | 0.97 |  |  |  | 
CCN(CC)C(=S)SC1C(=O)c2cc(Br)cc(Br)c2OC1c1ccc(Cl)cc1 (stereo not given) | inactive | inactive | inactive | inactive | inactive | inactive |  |  |  |  |  | 
CCN(CC)C(=S)SC1C(=O)c2cc(Br)ccc2OC1c1ccc(Cl)cc1 (stereo not given) | inactive | inactive | inactive | inactive | inactive | inactive |  |  |  |  |  | 
